What was measured:
Diabrotica balteata = Diabrotica balteata (corn root worm), sprayed maize sprouts, L2 larvae; type: in vivo; conditions: 96 h, application rate of 200 ppm, 4 days after infestation, in comparison to untreated samples, read-out: effect in at least one of the two categories (mortality or growth inhibition)
Description: Example B3: Diabrotica balteata (Corn Root Worm)
Maize sprouts, placed on an agar layer in 24-well microtiter plates were treated with aqueous test solutions prepared from 10,000 ppm DMSO stock solutions by spraying. After drying, the plates were infested with L2 larvae (6 to 10 per well). The samples were assessed for mortality and growth inhibition in comparison to untreated samples 4 days after infestation.

Plutella xylostella = Plutella xylostella (diamond back moth), treated artificial diet, L2 larvae; type: in vivo; conditions: 120 h, application rate of 200 ppm, 5 days after infestation, in comparison to untreated samples, read-out: effect in at least one of the two categories (mortality or growth inhibition)
Description: Example B2: Plutella xylostella (Diamond Back Moth)
24-well microtiter plates with artificial diet were treated with aqueous test solutions prepared from 10,000 ppm DMSO stock solutions by pipetting. After drying, the plates were infested with L2 larvae (10 to 15 per well). The samples were assessed for mortality and growth inhibition in comparison to untreated samples 5 days after infestation.

Spodoptera littoralis = Spodoptera littoralis (Egyptian cotton leaf worm), sprayed cotton leaf discs, L1 larvae; type: in vivo; conditions: foliar, 72 h, application rate of 200 ppm, 3 days after infestation, in comparison to untreated samples, read-out: control (at least one of mortality, anti-feedant effect, growth inhibition)
Description: Example B1: Spodoptera littoralis (Egyptian Cotton Leaf Worm)
Cotton leaf discs were placed on agar in 24-well microtiter plates and sprayed with aqueous test solutions prepared from 10,000 ppm DMSO stock solutions. After drying, the leaf discs were infested with five L1 larvae. The samples were assessed for mortality, anti-feedant effect, and growth inhibition in comparison to untreated samples 3 days after infestation. Control of Spodoptera littoralis by a test sample is when at least one of mortality, anti-feedant effect, and growth inhibition is higher than the untreated sample.

Row | melting point [°C] | SMILES | percent effect (mortality or growth inhibition) at 200 ppm (Diabrotica balteata) [%] | percent effect (mortality or growth inhibition) at 200 ppm (Plutella xylostella) [%] | percent control (mortality, anti-feedant effect or growth inhibition) at 200 ppm (Spodoptera littoralis) [%]
1 | – | Cc1cccc(C)c1NC(=S)N/N=C/c1ccc2cn(-c3ccc(OC(F)(F)F)cc3)nc2c1 [Compound P1, N-(2,6-dimethylphenyl)-2-((2-(4-(trifluoromethoxy)phenyl)-2H-indazol-6-yl)methylene)hydrazinecarbothioamide] | ≥ 80 | ≥ 80 | ≥ 80
2 | – | CC(C)c1ccccc1NC(=S)N/N=C/c1ccc2nc(Oc3ccc(OC(F)(F)F)cc3)ccc2c1 [Compound P2, N-(2-isopropylphenyl)-2-((2-(4-(trifluoromethoxy)phenoxy)quinolin-6-yl)methylene)hydrazinecarbothioamide] | ≥ 80 | ≥ 80 | ≥ 80
3 | – | Cc1cccc(C)c1NC(=S)N/N=C/c1ccc2c(c1)C(=O)N(c1ccc(OC(F)(F)F)cc1)C2=O [Compound P4, 1-(2,6-dimethylphenyl)-3-[(E)-[1,3-dioxo-2-[4-(trifluoromethoxy)phenyl]isoindolin-5-yl]methyleneamino]thiourea] | – | ≥ 80 | –
4 | 239 to 240 | CC(C)c1ccccc1NC(=O)N/N=C/c1ccc2c(c1)C(=O)N(c1ccc(OC(F)(F)F)cc1)C2=O [Compound P6] | – | – | –
5 | 235 to 236 | O=C1c2ccc(/C=N/NC(=S)Nc3ccccc3C(F)(F)F)cc2C(=O)N1c1ccc(OC(F)(F)F)cc1 [Compound P11] | – | – | –
6 | – | CC(C)c1ccccc1NC(=S)N/N=C/c1ccc2c(c1)C(=O)N(c1ccc(OC(F)(F)F)cc1)C2=O [Compound P12] | – | ≥ 80 | –
7 | – | Cc1cccc(C)c1NC(=S)N/N=C/c1ccc2sc(-c3ccc(OC(F)(F)F)cc3)nc2c1 [Compound P13, 1-(2,6-dimethylphenyl)-3-[(E)-[2-[4-(trifluoromethoxy)phenyl]-1,3-benzothiazol-5-yl]methyleneamino]thiourea] | ≥ 80 | ≥ 80 | –
8 | – | CC(C)c1ccccc1NC(=S)N/N=C/c1ccc2sc(-c3ccc(OC(F)(F)F)cc3)nc2c1 [Compound P14] | ≥ 80 | ≥ 80 | –
9 | – | CC(C)c1ccccc1NC(=O)N/N=C/c1ccc2sc(-c3ccc(OC(F)(F)F)cc3)nc2c1 [Compound P15] | ≥ 80 | ≥ 80 | –
10 | – | Cc1cccc(C)c1NC(=S)N/N=C/c1ccc2nc(-c3ccc(OC(F)(F)F)cc3)cn2c1 [Compound P17, 1-(2,6-dimethylphenyl)-3-[(E)-[2-[4-(trifluoromethoxy)phenyl]imidazo[1,2-a]pyridin-6-yl]methyleneamino]thiourea] | ≥ 80 | ≥ 80 | ≥ 80
11 | – | Cc1cccc(C)c1NC(=O)N/N=C/c1ccc2nc(-c3ccc(OC(F)(F)F)cc3)cn2c1 [Compound P18, 1-(2,6-dimethylphenyl)-3-[(E)-[2-[4-(trifluoromethoxy)phenyl]imidazo[1,2-a]pyridin-6-yl]methyleneamino]urea] | – | ≥ 80 | ≥ 80
12 | – | CC(C)c1ccccc1NC(=O)N/N=C/c1ccc2nc(-c3ccc(OC(F)(F)F)cc3)cn2c1 [Compound P19] | – | ≥ 80 | ≥ 80
13 | – | Cc1cccc(C)c1NC(=S)N/N=C/c1ccc2c(cnn2-c2ccc(OC(F)(F)F)cc2)c1 [Compound P21, 1-(2,6-dimethylphenyl)-3-[(E)-[1-[4-(trifluoromethoxy)phenyl]indazol-5-yl]methyleneamino]thiourea] | ≥ 80 | – | ≥ 80
14 | – | CC(C)c1ccccc1NC(=S)N/N=C/c1ccc2c(cnn2-c2ccc(OC(F)(F)F)cc2)c1 [Compound P22] | – | ≥ 80 | –
15 | 207 to 213 | CC(C)c1ccccc1NC(=O)N/N=C/c1ccc2c(cnn2-c2ccc(OC(F)(F)F)cc2)c1 [Compound P23] | – | – | –
16 | 227 to 233 | Cc1cccc(C)c1NC(=O)N/N=C/c1ccc2c(cnn2-c2ccc(OC(F)(F)F)cc2)c1 [Compound P24, 1-(2,6-dimethylphenyl)-3-[(E)-[1-[4-(trifluoromethoxy)phenyl]indazol-5-yl]methyleneamino]urea] | – | – | –
17 | 225 to 234 | Cc1cccc(C)c1NC(=S)N/N=C/c1ccc2nn(-c3ccc(OC(F)(F)F)cc3)cc2c1 [Compound P25, 1-(2,6-dimethylphenyl)-3-[(E)-[2-[4-(trifluoromethoxy)phenyl]indazol-5-yl]methyleneamino]thiourea] | – | – | –
18 | – | Cc1cccc(C)c1NC(=O)N/N=C/c1ccc2c(c1)nc(-c1ccc(OC(F)(F)F)cc1)n2C [Compound P27, 1-(2,6-dimethylphenyl)-3-[(E)-[1-methyl-2-[4-(trifluoromethoxy)phenyl]benzimidazol-5-yl]methyleneamino]urea] | – | – | ≥ 80
19 | 218 to 219 | Cc1cccc(C)c1NC(=O)N/N=C/c1ccc2nc(-c3ccc(OC(F)(F)F)cc3)n(C)c2c1 [Compound P28, 1-(2,6-dimethylphenyl)-3-[(E)-[3-methyl-2-[4-(trifluoromethoxy)phenyl]benzimidazol-5-yl]methyleneamino]urea] | – | – | –
20 | – | Cc1cccc(C)c1NC(=S)N/N=C/c1ccc2c(c1)nc(-c1ccc(OC(F)(F)F)cc1)n2C [Compound P29] | ≥ 80 | ≥ 80 | ≥ 80
21 | – | Cc1cccc(C)c1NC(=S)N/N=C/c1ccc2nc(-c3ccc(OC(F)(F)F)cc3)n(C)c2c1 [Compound P30] | – | ≥ 80 | –
22 | – | CC(C)c1ccccc1NC(=O)N/N=C/c1ccc2c(c1)nc(-c1ccc(OC(F)(F)F)cc1)n2C [Compound P31] | – | ≥ 80 | ≥ 80
23 | – | CC(C)c1ccccc1NC(=O)N/N=C/c1ccc2nc(-c3ccc(OC(F)(F)F)cc3)n(C)c2c1 [Compound P32] | – | ≥ 80 | ≥ 80
24 | – | CC(C)c1ccccc1NC(=S)N/N=C/c1ccc2c(c1)nc(-c1ccc(OC(F)(F)F)cc1)n2C [Compound P33] | – | ≥ 80 | ≥ 80
25 | – | CC(C)c1ccccc1NC(=S)N/N=C/c1ccc2nc(-c3ccc(OC(F)(F)F)cc3)n(C)c2c1 [Compound P34] | – | ≥ 80 | ≥ 80
26 | – | CC(C)c1ccccc1NC(=O)N/N=C/c1ccc2cn(-c3ccc(OC(F)(F)F)cc3)nc2c1 [Compound P35] | ≥ 80 | ≥ 80 | ≥ 80
27 | – | CC(C)c1ccccc1NC(=S)N/N=C/c1ccc2cn(-c3ccc(OC(F)(F)F)cc3)nc2c1 [Compound P36] | ≥ 80 | ≥ 80 | ≥ 80

Reference: US10721933B2, “Pesticidally active semi-carbazones and thiosemicarbazones derivatives” (Syngenta Participations AG, priority 2015, dated 2020)
